The text below walks through data of US8937076B2, “Crystalline form of entecavir, its preparation and the pharmaceutical composition and uses thereof” (Zhejiang Medicine Co., Ltd. Xinchang Pharaceutical Factory, priority 2007, dated 2015).

The nature of this series: Solubility at room temperature. The series is classed as physicochemical.

Take `C=C1[C@H](CO)[C@@H](O)C[C@@H]1n1cnc2c(=O)[nH]c(N)nc21` [crystalline form of entecavir]: where the note is “N. N-dimethylformamide”, the “Solubility in N,N-dimethylformamide” value is reported as “sparingly soluble”. Moreover, the “Solubility in dimethyl sulfoxide” value (dimethyl sulfoxide) is “soluble”. Also, the Solubility in ethanol result (ethanol) is reported as “slightly soluble”. For the same molecule, under “water”, the Solubility in water result is listed as “insoluble”.
